Assay results published in article PMC10149936, “Cofilin activation in pancreatic acinar cells plays a pivotal convergent role for mediating CCK-stimulated enzyme secretion and growth” (Frontiers in Physiology, 2023).

How the values were obtained:
Format in all cases: cell-based
[1] = test system: LIMK (pT508) in pancreatic acini; experiment: LIMK phosphorylation (pT508 LIMK Western blot) in isolated rat pancreatic acini
Method: Pancreatic acini preparations were obtained by collagenase digestion as previously described ([Bissonnette et al., 1984]; [Sato et al., 1989]; [Ramos-Alvarez and Jensen, 2018]). After collagenase digestion, dispersed acini were preincubated with different inhibitors in standard incubation solution ([Ramos-Alvarez and Jensen, 2018]; [Ramos-Ãlvarez et al., 2020]) for 3 h at 37°C under conditions specific for PKD/PKC, Src, PI3K, MAPKs, SSH1, LIMK, cofilin, other phosphatases and PAK4 inhibitors, as described previously ([Ramos-Alvarez and Jensen, 2018]; [Ramos-Ãlvarez et al., 2020]). Isolated acini and CCK1-R/Panc-1 cells (M&M 2.2.1) were also preincubated with two SSH1 inhibitors, D3 (25 μM, 1 h) ([Li et al., 2015]) or SE (50 μM, 3 h for acini; 24 h for CCK1-R/Panc-1 cells) ([Lee et al., 2017]). After preincubation, 1 mL aliquots of dispersed acini were incubated at 37°C for 3–15 min with CCK-8 (0.3 nM or 100 nM), for 5–15 min with TPA (1 µM) or without stimulants, used as control. Cells were lysed in lysis buffer (50 mM Tris/HCl pH 7.5, 150 mM NaCl, 1% Triton X-100, 1% deoxycholate, 0.1% sodium azide, 1 mM EGTA, 0.4 mM EDTA, 0.2 mM sodium orthovanadate, 1 mM PMSF, and one protease inhibitor tablet per 10 mL). After sonication, lysates were centrifuged at 10,000×g for 15 min at 4°C and protein concentration was measured using the Bio-Rad protein assay reagent. Finally, cells were processed as below for Western blotting.
Both concentrations of CCK-8 were used because CCK-8 is reported to have different responses with physiological and supraphysiological concentrations contributing to physiological and pathophysiological processes such as pancreatitis ([Dufresne et al., 2006]).
Western blotting and immunoprecipitation were performed as described previously ([Ramos-Alvarez and Jensen, 2018]). Whole cell lysates were subjected to SDS-PAGE using 4%–20% Tris–Glycine gels. […] Finally, membranes were then washed again twice in blocking buffer for 4 min, twice in washing buffer for 4 min, incubated for 4 min with chemiluminescence detection reagents. The intensity of the protein bands was measured using GeneTools software from Syngene, which were assessed in the linear detection range.
Isolated pancreatic acini were incubated with either no addition (control), CCK-8 (0.3 and 100 nM) or TPA (1 µM) for the indicated periods of time and then lysed. Western blots were analyzed using anti-pT508 LIMK, anti-pS3 cofilin and anti-pS978 SSH1, which […] the activation states of LIMK, cofilin and SSH1. Bands were visualized using chemiluminescence and quantified by densitometry.

AR42J cells = experiment: amylase release from AR42J cells (Phadebas); settings: Cytochalasin D 10 µM or Paclitaxel 5 µM; for inhibition of CCK-8/A71378-induced amylase secretion: 4 h, CCK-8 and A71378 (0.03 and 1 nM), 30 min; for effect on basal amylase release: AR42J (Figure 13B)
Method: (§1) CCK1 receptor transfected Panc-1 (CCK1-R/Panc-1) cells ([Berna et al., 2009]) and AR42J cells, were cultured in DMEM supplemented with 10% FBS and 1% penicillin/streptomycin and in RPMI supplemented with 10% FBS and 1% penicillin/streptomycin, respectively; and split 1:10 weekly with trypsin/EDTA, after washing in PBS. Finally, cells were seeded in 6-well plate and serum starved overnight, until they were 80% confluent. Cells were incubated at 37°C in 5% CO2/95% air. AR42J cells were treated with 100 nM dexamethasone for 72°h, which stimulates their differentiation into exocrine cells ([Logsdon, 1986]).
For siRNA-mediated knockdown, 5 × 10^5 CCK1-R/Panc-1 or AR42J cells were seeded into 6-well plates and incubated for 24 h. Cells were then transfected with 10 nM of siRNA against human SSH1 siRNA against human cofilin (Dharmacon. Lafayette, CO) in Opti-MEM medium for 48 h using Lipofectamine according to the manufacture’s instruction.
Amylase release was performed as described previously ([Sato et al., 1989]; [Ramos-Alvarez and Jensen, 2018]). Amylase activity was determined after 30 min incubation using the Phadebas reagent and was expressed as percentage of the total cellular amylase released into the extracellular medium during the incubation ([Ramos-Alvarez and Jensen, 2018]).
FIGURE 13 Effect of two cofilin inhibitors, Cytochalasin D or Paclitaxel, (A, B), or Cofilin siRNA (C), on the ability of CCK/TPA/A71378-stimulated amylase release form pancreatic acini (A) or AR42J cells (B, C). In (A, B) pancreatic acini and AR42J cells were incubated in the absence or presence of Cytochalasin D (10 µM) or Paclitaxel (5 µM) for 4 h and then incubated with no additions (control) or CCK-8 (0.03, 0.3, 1 and 100 nM), TPA (1 µM) or A71378 (0.03 and 1 nM) for 30 min and then lysed. In (B, C) AR42J cells were treated with Dexamethasone (100 nM) for 72 h, and in (C) AR42J cells were transfected with siRNA Non-targeting Control and siRNA against cofilin for 48 h, and then incubated with no addition (control) or CCK-8 (0.03 and 1 nM) and A71378 (0.03 and 1 nM) for 30 min. Amylase release, expressed as percent of cellular total amylase secreted, was determined after 30 min incubation. Means ± S.E. of at least 3 independent experiments. N.S., No significant.

[2] = test system: p44/42 MAPK in AR42J cells; experiment: p44/42 MAPK activation (pT202/Y204 Western blot) in AR42J cells; settings: Cytochalasin D 10 µM or Paclitaxel 5 µM, 4 h; A71378 30 nM 10 min
Method: as §1
Western blotting and immunoprecipitation were performed as described previously ([Ramos-Alvarez and Jensen, 2018]). Whole cell lysates were subjected to SDS-PAGE using 4%–20% Tris–Glycine gels. […] The intensity of the protein bands was measured using GeneTools software from Syngene, which were assessed in the linear detection range. […]
FIGURE 12 Effect of two cofilin inhibitors, Cytochalasin D or Paclitaxel (A, B), or cofilin siRNA (C), on the ability of A71378 (30 and 10 nM) to alter activation of cofilin (A) and p44/42 (B, C). […] Western blots were analyzed using anti-pS3 cofilin, anti-pT202/Y204 p44/42 and Tubulin. Bands were visualized using chemiluminescence and quantified by densitometry. […] Results are expressed as % of basal stimulation of the control group. […]

Row | Compound | effect on LIMK dephosphorylation ([1]; TPA 1 µM) | inhibition of CCK-8/A71378-induced amylase secretion (AR42J cells) | effect on basal amylase release (AR42J cells) | decrease of A71378-mediated activation of p44/42 [2] [%] | time of return of LIMK phosphorylation to basal levels ([1]; CCK-8 0.3 or 100 nM) [min]
1 | CCCCCCCCCCCCCC(=O)O[C@@H]1[C@@H](C)[C@@]2(O)[C@@H](C=C(CO)C[C@]3(O)C(=O)C(C)=C[C@@H]23)[C@H]2C(C)(C)[C@]12OC(C)=O [TPA, 12-O-tetradecanoylphobol-13-acetate] | did not cause LIMK dephosphorylation |  |  |  | 
2 | CC(=O)O[C@H]1C(=O)[C@@]2(C)[C@H]([C@H](OC(=O)c3ccccc3)[C@]3(O)C[C@H](OC(=O)[C@H](O)[C@@H](NC(=O)c4ccccc4)c4ccccc4)C(C)=C1C3(C)C)[C@]1(OC(C)=O)CO[C@@H]1C[C@@H]2O [Paclitaxel] |  | completely inhibited | Neither of these two cofilin inhibitors influenced basal amylase release | 36 | 
3 | C=C1[C@@H](C)[C@H]2[C@H](Cc3ccccc3)NC(=O)[C@]23[C@H](OC(C)=O)/C=C/[C@@](C)(O)C(=O)[C@@H](C)C/C=C/[C@H]3[C@@H]1O [Cytochalasin D] |  | completely inhibited | Neither of these two cofilin inhibitors influenced basal amylase release | 34 | 
4 | COOH-terminal octapeptide of cholecystokinin [CCK-8] |  |  |  |  | 30
